In patent US20260014133A1, “SUBSTITUTED 3-(l-OXOISOINDOLIN-2-YL)PIPERIDINE-2,6-DIONE/2-(2,6-DIOXOPIPERIDIN-3-YL)ISOINDOLINE-l,3-DIONE ANALOGS AS MODULATORS OF CEREBLON PROTEIN” (St. Jude's Chidren's Research Hospital, Inc., priority 2022, published 2026) one finds IC50 data, which are given here for 27 compounds.

The structures appear in SMILES notation.

Sequence of 6×His-CRBN-DDB1 protein (Q96SW2 whole entry): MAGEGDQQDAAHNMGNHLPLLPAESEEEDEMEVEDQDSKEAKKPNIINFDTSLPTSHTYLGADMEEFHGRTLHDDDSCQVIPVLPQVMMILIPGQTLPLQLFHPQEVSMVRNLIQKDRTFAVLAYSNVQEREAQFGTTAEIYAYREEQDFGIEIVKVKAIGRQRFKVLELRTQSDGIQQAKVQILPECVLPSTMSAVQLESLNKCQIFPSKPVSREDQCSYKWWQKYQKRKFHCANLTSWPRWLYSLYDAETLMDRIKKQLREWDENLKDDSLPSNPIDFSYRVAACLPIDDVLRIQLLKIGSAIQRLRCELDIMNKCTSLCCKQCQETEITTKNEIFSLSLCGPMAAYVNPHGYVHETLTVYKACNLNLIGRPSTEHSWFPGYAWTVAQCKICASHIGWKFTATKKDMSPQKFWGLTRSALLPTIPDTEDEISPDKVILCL
Sequence of 6×His-CRBN-DDB1 protein (Q16531 whole entry partner): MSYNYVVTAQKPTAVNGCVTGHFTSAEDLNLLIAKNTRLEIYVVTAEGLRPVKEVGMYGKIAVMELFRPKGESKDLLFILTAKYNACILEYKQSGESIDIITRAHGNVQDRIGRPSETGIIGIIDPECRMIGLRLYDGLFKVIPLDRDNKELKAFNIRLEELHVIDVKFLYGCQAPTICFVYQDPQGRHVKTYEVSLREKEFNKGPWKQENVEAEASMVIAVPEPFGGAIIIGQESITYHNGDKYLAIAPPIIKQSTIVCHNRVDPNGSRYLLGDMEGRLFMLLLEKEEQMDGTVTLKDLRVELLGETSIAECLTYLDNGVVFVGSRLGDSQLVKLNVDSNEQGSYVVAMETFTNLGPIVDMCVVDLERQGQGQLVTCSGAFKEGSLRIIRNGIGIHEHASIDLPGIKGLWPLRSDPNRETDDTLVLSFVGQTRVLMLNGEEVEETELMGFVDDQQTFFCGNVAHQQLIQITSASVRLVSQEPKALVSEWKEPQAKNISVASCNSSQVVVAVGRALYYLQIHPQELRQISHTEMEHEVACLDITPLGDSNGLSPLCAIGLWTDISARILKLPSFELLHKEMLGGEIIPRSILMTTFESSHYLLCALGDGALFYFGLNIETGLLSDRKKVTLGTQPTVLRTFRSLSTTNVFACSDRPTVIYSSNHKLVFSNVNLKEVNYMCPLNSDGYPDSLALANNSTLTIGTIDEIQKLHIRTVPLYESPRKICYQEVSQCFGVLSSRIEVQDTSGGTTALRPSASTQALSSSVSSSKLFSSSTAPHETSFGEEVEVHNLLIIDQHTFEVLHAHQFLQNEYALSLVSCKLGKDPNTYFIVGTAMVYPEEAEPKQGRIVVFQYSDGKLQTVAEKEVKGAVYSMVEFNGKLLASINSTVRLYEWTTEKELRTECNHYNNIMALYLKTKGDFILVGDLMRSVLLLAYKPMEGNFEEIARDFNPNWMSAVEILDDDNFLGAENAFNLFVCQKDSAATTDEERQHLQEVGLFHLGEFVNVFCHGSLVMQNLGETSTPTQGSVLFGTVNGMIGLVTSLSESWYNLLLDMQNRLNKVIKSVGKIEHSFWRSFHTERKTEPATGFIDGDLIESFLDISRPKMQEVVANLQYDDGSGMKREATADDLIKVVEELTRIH

The target of this test is 6×His-CRBN-DDB1 protein (Homo sapiens (Human), UniProt Q96SW2). Briefly: CRBN Fluorescence Polarization Assay. The format is binding. The conditions noted are these: competitive fluorescence polarization; Cy5-O-Len probe 30 nM, 6×His-CRBN-DDB1 200 nM; 1 hour at room temperature; mean of three independent determinations; read-out: CRBN FP (IC50). The procedure:
In this competitive fluorescent polarization assay Cy5 conjugated lenalidomide analog (Cy5-O-Len)^13 was used as a fluorescent probe. 6×His-CRBN-DDB1 protein (200 nM) and Cy5-O-Len probe (30 nM) were combined in 20 mM HEPES pH 7, 150 mM NaCl, 0.005% Tween-20 assay buffer. 20 μL of this assay cocktail was dispensed into wells of Corning 3821 black 384-well plates. Compounds were transferred to the assay plate from a dose-response plate using a Pintool on a Biomek FXP Laboratory Automation Workstation (Beckman Coulter). The plates were incubated in the dark for 1 hour at room temperature and then read on an Envision plate reader (PerkinElmer, Massachusetts, USA). IC50 values were determined using a proprietary software RISE (Robust Investigation of Screening Experiments), developed in house on the Pipeline Pilot platform (Biovia, v. 17.2.0). Data represent the mean of three independent determinations.
Cereblon binding activity was determined as described herein above, and the results are provided below in Table 2 for representative disclosed compounds. Compound number (“Cmpd No.”) refers to the compound number (and associated compound information such as structure, name, etc.) as provided in Table 1. In Table 2 below: cereblon binding IC50 values are categorized as follows: “A” represents IC50 value<1 μM, “B” represents IC50 value between 1 and 10 μM, and “C” represents IC50 value>10 μM.
Take `CS(=O)(=O)Nc1cccc(C(=O)Nc2ccc3c(c2)CN(C2CCC(=O)NC2=O)C3=O)c1` (stereo not drawn) [Compound 47, N-(2-(2,6-dioxopiperidin-3-yl)-1-oxoisoindolin-5-yl)-3-(methylsulfonamido)benzamide]: the IC50 is 1000 to 10000 nM.

For the compound `Cc1cc(C(=O)Nc2ccc3c(c2)CN(C2CCC(=O)NC2=O)C3=O)ccc1Br` (stereo not drawn) [Compound 54, 4-bromo-N-(2-(2,6-dioxopiperidin-3-yl)-1-oxoisoindolin-5-yl)-3-methylbenzamide], the IC50 was in the range of 1000 to 10000 nM.

As for `O=C1CCC(N2Cc3cc(NC(=O)c4ccccc4C(F)(F)F)ccc3C2=O)C(=O)N1` (stereo not drawn) [Compound 10, N-(2-(2,6-dioxopiperidin-3-yl)-1-oxoisoindolin-5-yl)-2-(trifluoromethyl)benzamide], the IC50 is less than 1000 nM.

Turning to `O=C1CCC(N2Cc3cc(NC(=O)COCc4ccccc4)ccc3C2=O)C(=O)N1` (stereo not drawn) [Compound 65, 2-(benzyloxy)-N-(2-(2,6-dioxopiperidin-3-yl)-1-oxolsoindolin-5-yl)acetamide], the IC50 was less than 1000 nM.

In the case of `O=C1CCC(N2Cc3cc(NC(=O)c4cccc(C5CC5)c4)ccc3C2=O)C(=O)N1` (stereo not drawn) [Compound 50, 3-cyclopropyl-N-(2-(2,6-dioxopiperidin-3-yl)-1-oxoisoindolin-5-yl)benzamide], the IC50 is 1000 to 10000 nM.

For the compound `O=C1CCC(N2Cc3cc(NC(=O)c4cccc(C(F)(F)F)c4)ccc3C2=O)C(=O)N1` (stereo not drawn) [Compound 12, N-(2-(2,6-dioxopiperidin-3-yl)-1-oxoisoindolin-5-yl)-3-(trifluoromethyl)benzamide], the IC50 was less than 1000 nM.

`CN1CCN(Cc2ccc(C(=O)Nc3ccc4c(c3)CN(C3CCC(=O)NC3=O)C4=O)cc2)CC1` (stereo not drawn) [Compound 31]: the IC50 fell in the range of 1000 to 10000 nM.

`O=C1CCC(N2Cc3cc(NC(=O)c4ccccc4)ccc3C2=O)C(=O)N1` (stereo not drawn) [Compound 4, N-(2-(2,6-dioxopiperidin-3-yl)-1-oxoisoindolin-5-yl)benzamide]: the IC50 is less than 1000 nM.

With `COc1ccccc1C(=O)Nc1ccc2c(c1)CN(C1CCC(=O)NC1=O)C2=O` (stereo not drawn) [Compound 34, N-(2-(2,6-dioxopiperidin-3-yl)-1-oxoisoindolin-5-yl)-2-methoxybenzamide], the IC50 was 1000 to 10000 nM.

With `CC(N)c1ccc(C(=O)Nc2ccc3c(c2)CN(C2CCC(=O)NC2=O)C3=O)cc1` (stereo not drawn) [Compound 29, 4-(1-aminoethyl)-N-(2-(2,6-dioxopiperidin-3-yl)-1-oxoisoindolin-5-yl)benzamide], the IC50 lay in the range of 1000 to 10000 nM.

Regarding `O=C1CCC(N2Cc3cc(NC(=O)Cc4ccccc4Br)ccc3C2=O)C(=O)N1` (stereo not drawn) [Compound 25, 2-(2-bromophenyl)-N-(2-(2,6-dioxopiperidin-3-yl)-1-oxoisoindolin-5-yl)acetamide], the IC50 is less than 1000 nM.

`CC(C)c1cccc(C(=O)Nc2ccc3c(c2)CN(C2CCC(=O)NC2=O)C3=O)c1` (stereo not drawn) [Compound 41, N-(2-(2,6-dioxopiperidin-3-yl)-1-oxoisoindolin-5-yl)-3-isopropylbenzamide]: the IC50 lay in the range of 1000 to 10000 nM.

In the case of `O=C1CCC(N2Cc3cc(NC(=O)COc4ccccc4)ccc3C2=O)C(=O)N1` (stereo not drawn) [Compound 64, N-(2-(2,6-dioxopiperidin-3-yl)-1-oxoisoindolin-5-yl)-2-phenoxyacetamide], the IC50 is less than 1000 nM.

For the compound `O=C1CCC(N2Cc3cc(NC(=O)c4ccccc4Oc4ccccc4)ccc3C2=O)C(=O)N1` (stereo not drawn) [Compound 23, N-(2-(2,6-dioxopiperidin-3-yl)-1-oxoisoindolin-5-yl)-2-phenoxybenzamide], the 50% inhibitory concentration (IC50) is less than 1000 nM.

Consider `CCOc1cc(C)cc(C(=O)Nc2ccc3c(c2)CN(C2CCC(=O)NC2=O)C3=O)c1` (stereo not drawn) [Compound 58, N-(2-(2,6-dioxopiperidin-3-yl)-1-oxoisoindolin-5-yl)-3-ethoxy-5-methylbenzamide], for which the IC50 was in the range of 1000 to 10000 nM.

For the compound `O=C1CCC(N2Cc3cc(NC(=O)c4ccc(OC(F)(F)F)cc4)ccc3C2=O)C(=O)N1` (stereo not drawn) [Compound 43, N-(2-(2,6-dioxopiperidin-3-yl)-1-oxoisoindolin-5-yl)-4-(trifluoromethoxy)benzamide], the IC50 was in the range of 1000 to 10000 nM.

For `COc1cc(C)cc(C(=O)Nc2ccc3c(c2)CN(C2CCC(=O)NC2=O)C3=O)c1` (stereo not drawn) [Compound 61, N-(2-(2,6-dioxopiperidin-3-yl)-1-oxoisoindolin-5-yl)-3-methoxy-5-methylbenzamide], the IC50 lay in the range of 1000 to 10000 nM.

`O=C1CCC(N2Cc3cc(Nc4noc5ccccc45)ccc3C2=O)C(=O)N1` (stereo not drawn) [Compound 38, 3-(5-(benzo[d]isoxazol-3-ylamino)-1-oxoisoindolin-2-yl)piperidine-2,6-dione]: the IC50 was less than 1000 nM.

Take `NC1(c2ccc(C(=O)Nc3ccc4c(c3)CN(C3CCC(=O)NC3=O)C4=O)cc2)CCC1` (stereo not drawn) [Compound 30, 4-(1-aminocyclobutyl)-N-(2-(2,6-dioxopiperidin-3-yl)-1-oxoisoindolin-5-yl)benzamide]: the IC50 lay in the range of 1000 to 10000 nM.

For the compound `Cc1ccc(NC(=O)Nc2ccc3c(c2)CN(C2CCC(=O)NC2=O)C3=O)cc1` (stereo not drawn) [Compound 17, 1-(2-(2,6-dioxopiperidin-3-yl)-1-oxoisoindolin-5-yl)-3-(p-tolyl)urea], the IC50 lay within 1000 to 10000 nM.

As for `Cc1cccc(C(=O)Nc2ccc3c(c2)CN(C2CCC(=O)NC2=O)C3=O)n1` (stereo not drawn) [Compound 35, N-(2-(2,6-dioxopiperidin-3-yl)-1-oxoisoindolin-5-yl)-6-methylpicolinamide], the IC50 was 1000 to 10000 nM.

For the compound `O=C1CCC(N2Cc3cc(Nc4noc5cc(F)ccc45)ccc3C2=O)C(=O)N1` (stereo not drawn) [Compound 62, 3-(5-((6-fluorobenzo[d]isoxazol-3-yl)amino)-1-oxoisoindolin-2-yl)piperidine-2,6-dione], the IC50 is less than 1000 nM.

On to `O=C1CCC(N2Cc3cc(NC(=O)c4ccccc4F)ccc3C2=O)C(=O)N1` (stereo not drawn) [Compound 37, N-(2-(2,6-dioxopiperidin-3-yl)-1-oxoisoindolin-5-yl)-2-fluorobenzamide], for which the IC50 lay within 1000 to 10000 nM.

With `CS(=O)(=O)Nc1ccc(C(=O)Nc2ccc3c(c2)CN(C2CCC(=O)NC2=O)C3=O)cc1` (stereo not drawn) [Compound 46, N-(2-(2,6-dioxopiperidin-3-yl)-1-oxoisoindolin-5-yl)-4-(methylsulfonamido)benzamide], the IC50 lay in the range of 1000 to 10000 nM.

Take `N#Cc1ccccc1C(=O)Nc1ccc2c(c1)CN(C1CCC(=O)NC1=O)C2=O` (stereo not drawn) [Compound 51, 2-cyano-N-(2-(2,6-dioxopiperidin-3-yl)-1-oxoisoindolin-5-yl)benzamide]: the IC50 is 1000 to 10000 nM.

`O=C1CCC(N2Cc3cc(NC(=O)c4ccc(C5CC5)cc4)ccc3C2=O)C(=O)N1` (stereo not drawn) [Compound 48, 4-cyclopropyl-N-(2-(2,6-dioxopiperidin-3-yl)-1-oxoisoindolin-5-yl)benzamide]: the IC50 was 1000 to 10000 nM.

In the case of `O=C1CCC(N2Cc3cc(NC(=O)c4ccncc4)ccc3C2=O)C(=O)N1` (stereo not drawn) [Compound 7, N-(2-(2,6-dioxopiperidin-3-yl)-1-oxoisoindolin-5-yl)isonicotinamide], the IC50 was in the range of 1000 to 10000 nM.
